Reference: the kinase profiling compilation of Christmann-Franck et al. (2016)

Tests used:
Assay in all cases: radiometric filter-binding kinase assay
SYK (human) = SYK (human) (UniProt P43405)
SRC (human) = SRC (human) (UniProt P12931)
PRKACA (human) = PRKACA (human) (UniProt P17612)
PIM2 (human) = PIM2 (human) (UniProt Q9P1W9)
MAPK14 (human) = MAPK14 (human) (UniProt Q16539)
IKBKE (human) = IKBKE (human) (UniProt Q14164)
CDK2 CCNA2 (human) = CDK2 CCNA2 (human) (UniProt P20248+P24941)
CHEK2 (human) = CHEK2 (human) (UniProt O96017)
MAP2K1 (human) = MAP2K1 (human) (UniProt Q02750)
RPS6KA5 KD1 KD2 (human) = RPS6KA5 KD1 KD2 (human) (UniProt O75582)
PAK7 (human) = PAK7 (human) (UniProt Q9P286)
MAPK3 (human) = MAPK3 (human) (UniProt P27361)
NEK2 (human) = NEK2 (human) (UniProt P51955)
CSNK1D (human) = CSNK1D (human) (UniProt P48730)
PRKAA1 or PRKAA2 (rat) = settings: accession and sequence are those of the human protein
CSK (human) = CSK (human) (UniProt P41240)
MAPK1 (human) = MAPK1 (human) (UniProt P28482)
FLT1 (human) = FLT1 (human) (UniProt P17948)
MAPK15 (human) = MAPK15 (human) (UniProt Q8TD08)
INSRR (human) = INSRR (human) (UniProt P14616)
NEK6 (human) = NEK6 (human) (UniProt Q9HC98)
BTK (human) = BTK (human) (UniProt Q06187)
RPS6KA3 KD1 KD2 (human) = RPS6KA3 KD1 KD2 (human) (UniProt P51812)
[1] = tested on: AKT2 (human), P31751 [S474D]
PLK1 (human) = PLK1 (human) (UniProt P53350)
[2] = tested on: RPS6KB1 (human), P23443 [T412E]
MKNK2 (human) = MKNK2 (human) (UniProt Q9HBH9)
RPS6KA1 KD1 KD2 (human) = RPS6KA1 KD1 KD2 (human) (UniProt Q15418)
RPS6KA1 KD1 KD2 (human), sequence (Q15418 whole entry, looked up): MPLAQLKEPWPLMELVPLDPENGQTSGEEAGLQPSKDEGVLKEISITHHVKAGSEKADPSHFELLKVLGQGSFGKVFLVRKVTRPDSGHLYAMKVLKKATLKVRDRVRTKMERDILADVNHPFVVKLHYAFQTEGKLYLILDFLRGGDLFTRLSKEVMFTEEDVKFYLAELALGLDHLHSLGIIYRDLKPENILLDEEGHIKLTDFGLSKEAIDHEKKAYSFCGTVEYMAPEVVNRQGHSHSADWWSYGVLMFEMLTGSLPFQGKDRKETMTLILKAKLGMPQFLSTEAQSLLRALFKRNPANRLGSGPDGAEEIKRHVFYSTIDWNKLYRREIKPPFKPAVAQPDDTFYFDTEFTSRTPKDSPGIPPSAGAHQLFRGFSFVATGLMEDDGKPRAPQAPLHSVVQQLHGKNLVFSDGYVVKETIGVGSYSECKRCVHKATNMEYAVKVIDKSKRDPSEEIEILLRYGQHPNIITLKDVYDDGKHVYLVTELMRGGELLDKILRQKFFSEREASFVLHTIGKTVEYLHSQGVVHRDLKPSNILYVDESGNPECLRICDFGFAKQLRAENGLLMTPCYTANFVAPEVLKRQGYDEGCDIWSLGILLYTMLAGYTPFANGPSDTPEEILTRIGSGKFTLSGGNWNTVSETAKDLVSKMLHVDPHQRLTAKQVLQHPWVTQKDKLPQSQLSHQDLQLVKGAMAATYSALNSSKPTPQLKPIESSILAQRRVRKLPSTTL

CHEK2 (human), sequence (O96017 whole entry, looked up): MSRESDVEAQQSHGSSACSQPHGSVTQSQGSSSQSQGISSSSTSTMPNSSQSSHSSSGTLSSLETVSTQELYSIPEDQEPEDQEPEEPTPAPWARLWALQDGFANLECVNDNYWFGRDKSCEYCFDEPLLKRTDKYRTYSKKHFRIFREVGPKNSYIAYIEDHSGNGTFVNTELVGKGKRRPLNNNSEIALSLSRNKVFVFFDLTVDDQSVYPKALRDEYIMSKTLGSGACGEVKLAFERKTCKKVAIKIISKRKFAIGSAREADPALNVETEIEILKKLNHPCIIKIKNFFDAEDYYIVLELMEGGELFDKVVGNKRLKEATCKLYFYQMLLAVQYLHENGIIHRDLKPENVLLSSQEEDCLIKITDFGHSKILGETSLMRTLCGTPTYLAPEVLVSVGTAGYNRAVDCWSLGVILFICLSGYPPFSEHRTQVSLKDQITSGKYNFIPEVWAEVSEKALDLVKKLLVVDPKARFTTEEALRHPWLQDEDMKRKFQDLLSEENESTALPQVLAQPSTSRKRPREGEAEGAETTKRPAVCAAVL
MAPK3 (human), sequence (P27361 whole entry, looked up): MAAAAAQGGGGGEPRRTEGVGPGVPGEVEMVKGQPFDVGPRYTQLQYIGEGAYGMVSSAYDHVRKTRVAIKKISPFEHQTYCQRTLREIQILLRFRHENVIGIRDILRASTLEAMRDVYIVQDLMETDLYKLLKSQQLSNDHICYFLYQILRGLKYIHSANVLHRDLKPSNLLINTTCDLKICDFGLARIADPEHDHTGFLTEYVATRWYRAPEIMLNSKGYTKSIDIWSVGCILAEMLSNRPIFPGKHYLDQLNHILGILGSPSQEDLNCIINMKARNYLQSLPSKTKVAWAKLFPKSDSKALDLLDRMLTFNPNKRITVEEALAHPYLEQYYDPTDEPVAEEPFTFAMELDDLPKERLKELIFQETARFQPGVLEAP
CSNK1D (human), sequence (P48730 whole entry, looked up): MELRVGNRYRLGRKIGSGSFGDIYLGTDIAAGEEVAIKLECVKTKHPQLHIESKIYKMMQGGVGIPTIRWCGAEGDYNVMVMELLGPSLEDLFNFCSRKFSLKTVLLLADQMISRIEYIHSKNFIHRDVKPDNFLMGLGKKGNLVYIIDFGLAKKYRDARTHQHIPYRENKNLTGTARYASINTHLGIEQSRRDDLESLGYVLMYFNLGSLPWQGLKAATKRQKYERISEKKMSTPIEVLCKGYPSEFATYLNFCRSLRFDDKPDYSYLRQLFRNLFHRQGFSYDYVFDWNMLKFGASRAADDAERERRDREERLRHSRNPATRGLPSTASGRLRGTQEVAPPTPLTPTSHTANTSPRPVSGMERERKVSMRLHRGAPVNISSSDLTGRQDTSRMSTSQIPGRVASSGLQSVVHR
NEK6 (human), sequence (Q9HC98 whole entry, looked up): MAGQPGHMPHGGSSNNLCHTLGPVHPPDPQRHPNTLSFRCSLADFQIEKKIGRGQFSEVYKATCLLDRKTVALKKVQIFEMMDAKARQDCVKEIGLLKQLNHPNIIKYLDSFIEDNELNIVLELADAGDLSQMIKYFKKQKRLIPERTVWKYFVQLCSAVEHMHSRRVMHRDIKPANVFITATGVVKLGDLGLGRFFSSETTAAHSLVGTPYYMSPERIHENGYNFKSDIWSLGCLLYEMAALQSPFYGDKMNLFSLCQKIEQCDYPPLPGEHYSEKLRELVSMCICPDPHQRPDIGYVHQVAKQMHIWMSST
AKT2 (human), P31751 [S474D], sequence (P31751 whole entry S474D, looked up): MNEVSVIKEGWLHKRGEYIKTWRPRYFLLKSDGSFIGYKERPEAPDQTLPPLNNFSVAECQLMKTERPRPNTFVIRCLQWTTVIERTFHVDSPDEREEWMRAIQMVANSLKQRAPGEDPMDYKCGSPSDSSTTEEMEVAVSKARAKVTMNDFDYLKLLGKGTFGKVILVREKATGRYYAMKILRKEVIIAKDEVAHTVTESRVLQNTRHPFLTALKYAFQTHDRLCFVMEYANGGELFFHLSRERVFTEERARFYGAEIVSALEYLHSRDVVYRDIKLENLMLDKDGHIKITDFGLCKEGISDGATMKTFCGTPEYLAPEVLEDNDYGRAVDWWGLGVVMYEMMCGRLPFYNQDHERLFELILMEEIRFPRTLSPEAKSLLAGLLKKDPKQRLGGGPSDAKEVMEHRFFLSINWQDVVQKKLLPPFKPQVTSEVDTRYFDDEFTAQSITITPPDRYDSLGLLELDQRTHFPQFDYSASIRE
SRC (human), sequence (P12931 whole entry, looked up): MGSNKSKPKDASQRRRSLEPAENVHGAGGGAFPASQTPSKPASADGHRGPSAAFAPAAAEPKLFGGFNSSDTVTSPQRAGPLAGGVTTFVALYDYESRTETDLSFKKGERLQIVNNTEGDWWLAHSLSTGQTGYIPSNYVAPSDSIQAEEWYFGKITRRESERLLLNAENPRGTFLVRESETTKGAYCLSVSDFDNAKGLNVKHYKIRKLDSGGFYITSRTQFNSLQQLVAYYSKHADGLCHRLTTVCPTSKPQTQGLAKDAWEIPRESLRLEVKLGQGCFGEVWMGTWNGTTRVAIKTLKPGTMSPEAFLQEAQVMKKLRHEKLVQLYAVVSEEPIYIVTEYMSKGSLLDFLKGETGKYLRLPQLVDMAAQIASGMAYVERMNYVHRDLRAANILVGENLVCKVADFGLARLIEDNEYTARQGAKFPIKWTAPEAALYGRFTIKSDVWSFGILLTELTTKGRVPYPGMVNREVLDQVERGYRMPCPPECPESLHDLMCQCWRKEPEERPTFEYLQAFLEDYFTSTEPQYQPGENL
BTK (human), sequence (Q06187 whole entry, looked up): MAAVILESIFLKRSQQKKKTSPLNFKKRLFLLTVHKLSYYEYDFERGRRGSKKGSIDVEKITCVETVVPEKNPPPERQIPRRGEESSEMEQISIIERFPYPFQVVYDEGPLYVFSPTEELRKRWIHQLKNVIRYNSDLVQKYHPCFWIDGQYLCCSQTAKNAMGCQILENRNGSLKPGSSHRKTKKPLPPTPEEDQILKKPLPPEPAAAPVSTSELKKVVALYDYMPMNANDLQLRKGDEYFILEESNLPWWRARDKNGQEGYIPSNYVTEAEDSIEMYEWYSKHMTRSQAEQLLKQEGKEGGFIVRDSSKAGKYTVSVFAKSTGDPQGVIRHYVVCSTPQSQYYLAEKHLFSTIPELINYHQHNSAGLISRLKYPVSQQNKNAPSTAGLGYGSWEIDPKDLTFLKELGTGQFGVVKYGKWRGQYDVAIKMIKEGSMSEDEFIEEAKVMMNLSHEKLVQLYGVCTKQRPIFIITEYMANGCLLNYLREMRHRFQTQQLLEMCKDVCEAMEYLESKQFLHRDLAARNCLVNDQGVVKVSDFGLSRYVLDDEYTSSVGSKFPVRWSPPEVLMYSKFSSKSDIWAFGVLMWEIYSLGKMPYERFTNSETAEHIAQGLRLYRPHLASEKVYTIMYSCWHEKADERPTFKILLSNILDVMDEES
CSK (human), sequence (P41240 whole entry, looked up): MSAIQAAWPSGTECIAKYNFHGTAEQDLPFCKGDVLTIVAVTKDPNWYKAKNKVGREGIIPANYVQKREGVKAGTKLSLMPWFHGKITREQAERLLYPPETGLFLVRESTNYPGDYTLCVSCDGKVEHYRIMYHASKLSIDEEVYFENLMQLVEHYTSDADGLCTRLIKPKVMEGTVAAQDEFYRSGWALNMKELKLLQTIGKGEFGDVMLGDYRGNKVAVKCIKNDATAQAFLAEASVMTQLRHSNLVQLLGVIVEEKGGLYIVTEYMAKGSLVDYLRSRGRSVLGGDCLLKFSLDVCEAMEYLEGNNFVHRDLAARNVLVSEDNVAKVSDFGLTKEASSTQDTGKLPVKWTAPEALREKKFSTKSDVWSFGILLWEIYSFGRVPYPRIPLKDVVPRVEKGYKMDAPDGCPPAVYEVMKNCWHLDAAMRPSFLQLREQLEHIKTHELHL
MKNK2 (human), sequence (Q9HBH9 whole entry, looked up): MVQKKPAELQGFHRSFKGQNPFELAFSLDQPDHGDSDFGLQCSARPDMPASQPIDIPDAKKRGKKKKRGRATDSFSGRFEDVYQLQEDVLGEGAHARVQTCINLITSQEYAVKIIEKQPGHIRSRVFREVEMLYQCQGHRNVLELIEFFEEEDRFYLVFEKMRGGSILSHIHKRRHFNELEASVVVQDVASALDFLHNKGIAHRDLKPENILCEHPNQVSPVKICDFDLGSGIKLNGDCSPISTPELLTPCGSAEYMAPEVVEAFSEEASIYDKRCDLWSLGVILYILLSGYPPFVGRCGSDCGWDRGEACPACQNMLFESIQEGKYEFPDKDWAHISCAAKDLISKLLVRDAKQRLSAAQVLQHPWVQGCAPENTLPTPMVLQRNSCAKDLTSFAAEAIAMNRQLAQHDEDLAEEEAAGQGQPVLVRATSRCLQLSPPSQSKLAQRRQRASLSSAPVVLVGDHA

Cc1cc(SCc2sc(-c3ccc(C(F)(F)F)cc3)nc2C)ccc1OCC(=O)O
residual activity (SYK (human); compound 1.0 µM): 103%
residual activity (SYK (human); compound 10.0 µM): 85%
residual activity (SRC (human); compound 1.0 µM): 87%
residual activity (SRC (human); compound 10.0 µM): 70%
residual activity (PRKACA (human); compound 1.0 µM): 110%
residual activity (PRKACA (human); compound 10.0 µM): 86%
residual activity (PIM2 (human); compound 1.0 µM): 99%
residual activity (PIM2 (human); compound 10.0 µM): 106%
residual activity (MAPK14 (human); compound 1.0 µM): 82%
residual activity (MAPK14 (human); compound 10.0 µM): 98%
residual activity (IKBKE (human); compound 1.0 µM): 92%
residual activity (IKBKE (human); compound 10.0 µM): 92%
residual activity (CDK2 CCNA2 (human); compound 1.0 µM): 87%
residual activity (CDK2 CCNA2 (human); compound 10.0 µM): 81%
residual activity (CHEK2 (human); compound 1.0 µM): 81%
residual activity (CHEK2 (human); compound 10.0 µM): 101%
residual activity (MAP2K1 (human); compound 1.0 µM): 105%
residual activity (MAP2K1 (human); compound 10.0 µM): 90%
residual activity (RPS6KA5 KD1 KD2 (human); compound 1.0 µM): 96%
residual activity (RPS6KA5 KD1 KD2 (human); compound 10.0 µM): 92%
residual activity (PAK7 (human); compound 1.0 µM): 97%
residual activity (PAK7 (human); compound 10.0 µM): 111%
residual activity (MAPK3 (human); compound 1.0 µM): 115%
residual activity (NEK2 (human); compound 1.0 µM): 94%
residual activity (NEK2 (human); compound 10.0 µM): 153%
residual activity (CSNK1D (human); compound 1.0 µM): 82%
residual activity (CSNK1D (human); compound 10.0 µM): 80%
residual activity (PRKAA1 or PRKAA2 (rat); compound 1.0 µM): 94%
residual activity (PRKAA1 or PRKAA2 (rat); compound 10.0 µM): 91%
residual activity (CSK (human); compound 1.0 µM): 98%
residual activity (CSK (human); compound 10.0 µM): 97%
residual activity (MAPK1 (human); compound 1.0 µM): 100%
residual activity (MAPK1 (human); compound 10.0 µM): 102%
residual activity (FLT1 (human); compound 1.0 µM): 84%
residual activity (FLT1 (human); compound 10.0 µM): 74%
residual activity (MAPK15 (human); compound 1.0 µM): 103%
residual activity (MAPK15 (human); compound 10.0 µM): 109%
residual activity (INSRR (human); compound 1.0 µM): 81%
residual activity (INSRR (human); compound 10.0 µM): 95%
residual activity (NEK6 (human); compound 1.0 µM): 101%
residual activity (BTK (human); compound 1.0 µM): 92%
residual activity (BTK (human); compound 10.0 µM): 95%
residual activity (RPS6KA3 KD1 KD2 (human); compound 1.0 µM): 94%
residual activity ([1]; compound 1.0 µM): 103%
residual activity ([1]; compound 10.0 µM): 103%
residual activity (PLK1 (human); compound 1.0 µM): 75%
residual activity (PLK1 (human); compound 10.0 µM): 60%
residual activity ([2]; compound 1.0 µM): 98%
residual activity ([2]; compound 10.0 µM): 105%
residual activity (MKNK2 (human); compound 1.0 µM): 99%
residual activity (MKNK2 (human); compound 10.0 µM): 83%
residual activity (RPS6KA1 KD1 KD2 (human); compound 1.0 µM): 106%
residual activity (RPS6KA1 KD1 KD2 (human); compound 10.0 µM): 113%

O=C1Nc2nc(-c3c(O)cccc3OCC3CC3)cc(C3CCCNC3)c2CO1 (configuration not stated)
residual activity (SYK (human); compound 1.0 µM): 106%
residual activity (SYK (human); compound 10.0 µM): 91%
residual activity (SRC (human); compound 1.0 µM): 91%
residual activity (SRC (human); compound 10.0 µM): 83%
residual activity (PRKACA (human); compound 1.0 µM): 79%
residual activity (PRKACA (human); compound 10.0 µM): 65%
residual activity (PIM2 (human); compound 10.0 µM): 40%
residual activity (MAPK14 (human); compound 1.0 µM): 91%
residual activity (MAPK14 (human); compound 10.0 µM): 78%
residual activity (IKBKE (human); compound 1.0 µM): 83%
residual activity (IKBKE (human); compound 10.0 µM): 74%
residual activity (CDK2 CCNA2 (human); compound 1.0 µM): 58%
residual activity (CDK2 CCNA2 (human); compound 10.0 µM): 14%
residual activity (CHEK2 (human); compound 1.0 µM): 77%
residual activity (CHEK2 (human); compound 10.0 µM): 46%
residual activity (MAP2K1 (human); compound 1.0 µM): 79%
residual activity (MAP2K1 (human); compound 10.0 µM): 62%
residual activity (RPS6KA5 KD1 KD2 (human); compound 1.0 µM): 71%
residual activity (RPS6KA5 KD1 KD2 (human); compound 10.0 µM): 31%
residual activity (PAK7 (human); compound 1.0 µM): 82%
residual activity (PAK7 (human); compound 10.0 µM): 72%
residual activity (MAPK3 (human); compound 10.0 µM): 86%
residual activity (NEK2 (human); compound 1.0 µM): 83%
residual activity (NEK2 (human); compound 10.0 µM): 81%
residual activity (CSNK1D (human); compound 1.0 µM): 81%
residual activity (CSNK1D (human); compound 10.0 µM): 43%
residual activity (PRKAA1 or PRKAA2 (rat); compound 1.0 µM): 87%
residual activity (PRKAA1 or PRKAA2 (rat); compound 10.0 µM): 54%
residual activity (CSK (human); compound 1.0 µM): 91%
residual activity (CSK (human); compound 10.0 µM): 92%
residual activity (MAPK1 (human); compound 1.0 µM): 81%
residual activity (MAPK1 (human); compound 10.0 µM): 74%
residual activity (FLT1 (human); compound 1.0 µM): 112%
residual activity (FLT1 (human); compound 10.0 µM): 116%
residual activity (MAPK15 (human); compound 1.0 µM): 53%
residual activity (MAPK15 (human); compound 10.0 µM): 10%
residual activity (INSRR (human); compound 1.0 µM): 78%
residual activity (INSRR (human); compound 10.0 µM): 45%
residual activity (NEK6 (human); compound 1.0 µM): 98%
residual activity (NEK6 (human); compound 10.0 µM): 93%
residual activity (BTK (human); compound 1.0 µM): 100%
residual activity (BTK (human); compound 10.0 µM): 83%
residual activity (RPS6KA3 KD1 KD2 (human); compound 1.0 µM): 80%
residual activity (RPS6KA3 KD1 KD2 (human); compound 10.0 µM): 53%
residual activity ([1]; compound 1.0 µM): 88%
residual activity ([1]; compound 10.0 µM): 61%
residual activity (PLK1 (human); compound 1.0 µM): 83%
residual activity (PLK1 (human); compound 10.0 µM): 87%
residual activity ([2]; compound 1.0 µM): 102%
residual activity ([2]; compound 10.0 µM): 68%
residual activity (MKNK2 (human); compound 1.0 µM): 98%
residual activity (MKNK2 (human); compound 10.0 µM): 87%
residual activity (RPS6KA1 KD1 KD2 (human); compound 1.0 µM): 83%
residual activity (RPS6KA1 KD1 KD2 (human); compound 10.0 µM): 46%

O=C1NC(=S)N[C@@H]1Cc1c[nH]c2ccccc12
residual activity (SYK (human); compound 1.0 µM): 92%
residual activity (SYK (human); compound 10.0 µM): 116%
residual activity (SRC (human); compound 1.0 µM): 94%
residual activity (SRC (human); compound 10.0 µM): 99%
residual activity (PRKACA (human); compound 1.0 µM): 80%
residual activity (PRKACA (human); compound 10.0 µM): 95%
residual activity (PIM2 (human); compound 1.0 µM): 97%
residual activity (PIM2 (human); compound 10.0 µM): 86%
residual activity (MAPK14 (human); compound 1.0 µM): 76%
residual activity (MAPK14 (human); compound 10.0 µM): 82%
residual activity (IKBKE (human); compound 1.0 µM): 84%
residual activity (IKBKE (human); compound 10.0 µM): 93%
residual activity (CDK2 CCNA2 (human); compound 1.0 µM): 85%
residual activity (CDK2 CCNA2 (human); compound 10.0 µM): 94%
residual activity (CHEK2 (human); compound 1.0 µM): 82%
residual activity (CHEK2 (human); compound 10.0 µM): 94%
residual activity (MAP2K1 (human); compound 1.0 µM): -2%
residual activity (MAP2K1 (human); compound 10.0 µM): 2%
residual activity (RPS6KA5 KD1 KD2 (human); compound 1.0 µM): 80%
residual activity (RPS6KA5 KD1 KD2 (human); compound 10.0 µM): 87%
residual activity (PAK7 (human); compound 1.0 µM): 97%
residual activity (PAK7 (human); compound 10.0 µM): 108%
residual activity (MAPK3 (human); compound 1.0 µM): 107%
residual activity (MAPK3 (human); compound 10.0 µM): 82%
residual activity (NEK2 (human); compound 1.0 µM): 87%
residual activity (NEK2 (human); compound 10.0 µM): 92%
residual activity (CSNK1D (human); compound 1.0 µM): 105%
residual activity (CSNK1D (human); compound 10.0 µM): 115%
residual activity (PRKAA1 or PRKAA2 (rat); compound 1.0 µM): 102%
residual activity (PRKAA1 or PRKAA2 (rat); compound 10.0 µM): 95%
residual activity (CSK (human); compound 1.0 µM): 101%
residual activity (CSK (human); compound 10.0 µM): 104%
residual activity (MAPK1 (human); compound 1.0 µM): 80%
residual activity (MAPK1 (human); compound 10.0 µM): 88%
residual activity (FLT1 (human); compound 1.0 µM): 89%
residual activity (MAPK15 (human); compound 1.0 µM): 104%
residual activity (MAPK15 (human); compound 10.0 µM): 94%
residual activity (INSRR (human); compound 1.0 µM): 83%
residual activity (INSRR (human); compound 10.0 µM): 90%
residual activity (NEK6 (human); compound 1.0 µM): 83%
residual activity (NEK6 (human); compound 10.0 µM): 87%
residual activity (BTK (human); compound 1.0 µM): 84%
residual activity (BTK (human); compound 10.0 µM): 99%
residual activity (RPS6KA3 KD1 KD2 (human); compound 1.0 µM): 78%
residual activity (RPS6KA3 KD1 KD2 (human); compound 10.0 µM): 100%
residual activity ([1]; compound 1.0 µM): 83%
residual activity ([1]; compound 10.0 µM): 97%
residual activity (PLK1 (human); compound 1.0 µM): 97%
residual activity (PLK1 (human); compound 10.0 µM): 93%
residual activity ([2]; compound 1.0 µM): 88%
residual activity ([2]; compound 10.0 µM): 100%
residual activity (MKNK2 (human); compound 1.0 µM): 92%
residual activity (MKNK2 (human); compound 10.0 µM): 97%
residual activity (RPS6KA1 KD1 KD2 (human); compound 1.0 µM): 80%
residual activity (RPS6KA1 KD1 KD2 (human); compound 10.0 µM): 91%
